These results are taken from patent publication US20160002733A1, “ASSESSING RISK FOR ENCEPHALOPATHY INDUCED BY 5-FLUOROURACIL OR CAPECITABINE” (THE BOARD OF TRUSTEES OF THE LELAND STANFORD JUNIOR …, priority 2013, published 2016).

For data set [1] the following is noted: high dose continuous infusion 5-FU; sixteen of 280 patients; cited from earlier work.
Data set [2] is classed as in vivo, human. The conditions noted are these: for plasma ammonia: male. As to the method:
Plasma ammonia levels were obtained at Stanford University Medical Center, which followed a strict protocol of immediately placing the blood sample on ice, and then analyzing the sample within 15 minutes. Samples not placed on ice, or analyzed after a longer delay yield artificially elevated plasma ammonia levels due to release of ammonia from erythrocytes and deamination of plasma amino acids (52, 53).
A person with gastric adenocarcinoma underwent subtotal gastrectomy and Roux-en-Y gastrojejunostomy, followed by two cycles of adjuvant carboplatin and capecitabine (1000 mg/m^2 twice a day for 14 days), and then 50 Gy of radiation therapy to the tumor bed with concurrent capecitabine (1000 mg/m^2 twice a day). During each course of capecitabine, they experienced extreme lethargy, without mucositis, diarrhea or hand-foot syndrome.
On the third cycle of carboplatin and capecitabine, self-administered folate 1 mg/d hoping to prevent lethargy. From days 5 to 14 of capecitabine, they became increasingly confused, and then combative and ataxic. Two days after the last capecitabine dose, they were taken to local emergency room for delirium and found to have a normal CT scan of the brain.
After discontinuation of lactulose on discharge from the hospital, plasma ammonia gradually rose and then returned to normal over two months (FIG. 2A). Four months after discharge, mild liver steatosis was noted on CT scan for the first time.
A person with newly diagnosed squamous cell carcinoma of the left tonsil and base of tongue began treatment with docetaxel and cisplatin, followed by a planned 5-day infusion of 5-FU (750 mg/m^2). Past medical history included manic depression treated with valproic acid.
(§1) After 1 day, the infusion 5-FU was held because of diarrhea from C. difficile, which was treated with metronidazole. Two days later, the infusion was resumed. On the third infusion day, the patient developed slurred speech and gait ataxia. On the fifth infusion day, they became delirious and then comatose. MRI and CT scan of the brain, and lumbar puncture were normal. Valproic acid trough levels ([…]) were within therapeutic range, which is sufficient to inhibit N-acetylglutamate synthase (FIG. 1A) and disrupt the urea cycle (11, 12). Despite multiple episodes of diarrhea and a delay of 10 hours following discontinuation of infusion 5-FU, plasma ammonia was elevated at 37 μmol/L. The next day, the patient was alert, and plasma ammonia was 16 μmol/L. The tumor had decreased markedly in size, no longer preventing them from turning their head.
A person with a well-differentiated neuroendocrine tumor of unknown primary began treatment with capecitabine (days 1-14) and temozolomide (days 10-14) after progression of massive liver metastases. […]

A short description of data set [3]: Valproic acid trough levels in Patient 2. The class given is in vivo, human. The following applies: within therapeutic range. As to the method: as §1
Data set [4] can be described thus: Prospective measurement of plasma ammonia levels in patients treated with capecitabine. The class given is in vivo, human. The protocol: Prospective Measurement of Plasma Ammonia Levels in Patients Treated with Capecitabine
Patients donated whole blood for analysis after providing consent according to a protocol approved by the Stanford University Administrative Panel for the Protection of Human Subjects.
Plasma ammonia levels were obtained at Stanford University Medical Center, which followed a strict protocol of immediately placing the blood sample on ice, and then analyzing the sample within 15 minutes. Samples not placed on ice, or analyzed after a longer delay yield artificially elevated plasma ammonia levels due to release of ammonia from erythrocytes and deamination of plasma amino acids (52, 53). […]
Mid-cycle levels were measured after patients had taken capecitabine for 7 to 14 days. […]
To prospectively measure plasma ammonia after capecitabine, we prospectively studied 29 cancer patients (Table 3). […] To estimate baseline plasma ammonia levels, we measured 2 or more levels before the first capecitabine dose or at least 7 days after the previous capecitabine dose.
We monitored changes in cognitive function between baseline and mid-cycle time points with two instruments: a telephone-administered mini-mental status examination, and a patient self-administered questionnaire. […]

Values joined by “and” are separate entries in the source; they are usually repeats but may differ in a detail not shown here. Equal entries are not always repeated. Where two headings read alike, the source gives them in different places.

For the molecule `O=c1[nH]cc(F)c(=O)[nH]1` [5-FU, 5-fluorouracil], the “patients who suffered encephalopathy with hyperammonemia” value in data set [1] is reported as 5.7%. For the same molecule, the plasma ammonia in data set [2] (human, in vivo) turned out to be 16 µmol/L.

With `CCCC(CCC)C(=O)O` [Valproic acid, valproic acid], the Valproic acid trough levels in data set [3] was 45 µg/mL and 68 µg/mL.

On to `CCCCCOC(=O)Nc1nc(=O)n(C2OC(C)C(O)C2O)cc1F` (centres unmarked) [capecitabine, pentyl[1-(3,4-dihydroxy-5-methyltetrahydrofuran-2-yl)-5-fluoro-2-oxo-1H-pyrimidin-4-yl]carbamate], for which the “patients with mid-cycle plasma ammonia levels increased above baseline levels” value in data set [4] (29 cancer patients, mid-cycle after 7 to 14 days of capecitabine, by more than 3 or 4 standard deviations (p<0.01 or p<0.001)) is given as 5 of the 29. In addition, the “patients with clinically significant symptoms among those with increased mid-cycle ammonia levels” value in data set [4] (of the 5 patients with increased mid-cycle ammonia, cognitive dysfunction, malaise, fatigue, unsteady gait) was 2 of the 5. In data set [2] (female, human, in vivo, 7 days after the last capecitabine dose), this molecule displayed a plasma ammonia level of 158 µmol/L. The same molecule displayed a plasma ammonia in data set [2] (human, in vivo, 7 days after discontinuing capecitabine) of 54 µmol/L.

As for `OC[C@H]1O[C@@H](O[C@@H]2[C@@H](CO)OC(O)(CO)[C@H]2O)[C@H](O)[C@@H](O)[C@H]1O` (mixture of isomers) [lactulose], the “plasma ammonia with lactulose treatment” value in data set [2] (Patient 1 (index case), declined from 158 μmol/L, symptoms resolved) stood at 29 µmol/L.
